We go through three compounds from publication PMC10145651, “Modulation of the 5-Lipoxygenase Pathway by Chalcogen-Containing Inhibitors of Leukotriene A4 Hydrolase” (International Journal of Molecular Sciences, 2023).

Series [1] concerns peripheral blood-derived monocytes. Kind of series: MTT cytotoxicity assay with monocytes. Type of series: cell-based, human. Particulars: lower concentrations (less than 30 µM); MTT and LDH assays, Figure S3. The protocol: Human primary leukocytes were isolated from peripheral blood of healthy adult volunteers provided by the Institute of Transfusion Medicine at the University Hospital Greifswald as described before. All methods were performed in accordance with the Declaration of Helsinki. […] The remaining erythrocytes were removed by hypotonic lysis using water, and resulting polymorphonuclear neutrophils (PMNs) were resuspended in PBS containing 0.1% (w/v) glucose (PG buffer) or PG buffer with 1 mM CaCl2 (PGC buffer) as indicated.
Then, cells were incubated with 5 mg/mL MTT in PBS until the blue staining of the vehicle-containing control cells. Formazan formation was stopped by 100 µL of 10% (w/v in 20 mM HCl) SDS lysis buffer and followed by shaking overnight. Finally, absorbance was measured at 570 nm with a SpectraMax® i3x multi-mode detection platform (Molecular Devices, San Jose, CA, USA). The pan-protein kinase inhibitor staurosporine (1 µM) was used as a cytotoxic control inhibitor.
A general note: Tetrazolium dyes change colour on reduction, which living cells bring about.

In a further series the target is T1, LTA4H (Homo sapiens, UniProt P09960).
T1 sequence (P09960 1-611): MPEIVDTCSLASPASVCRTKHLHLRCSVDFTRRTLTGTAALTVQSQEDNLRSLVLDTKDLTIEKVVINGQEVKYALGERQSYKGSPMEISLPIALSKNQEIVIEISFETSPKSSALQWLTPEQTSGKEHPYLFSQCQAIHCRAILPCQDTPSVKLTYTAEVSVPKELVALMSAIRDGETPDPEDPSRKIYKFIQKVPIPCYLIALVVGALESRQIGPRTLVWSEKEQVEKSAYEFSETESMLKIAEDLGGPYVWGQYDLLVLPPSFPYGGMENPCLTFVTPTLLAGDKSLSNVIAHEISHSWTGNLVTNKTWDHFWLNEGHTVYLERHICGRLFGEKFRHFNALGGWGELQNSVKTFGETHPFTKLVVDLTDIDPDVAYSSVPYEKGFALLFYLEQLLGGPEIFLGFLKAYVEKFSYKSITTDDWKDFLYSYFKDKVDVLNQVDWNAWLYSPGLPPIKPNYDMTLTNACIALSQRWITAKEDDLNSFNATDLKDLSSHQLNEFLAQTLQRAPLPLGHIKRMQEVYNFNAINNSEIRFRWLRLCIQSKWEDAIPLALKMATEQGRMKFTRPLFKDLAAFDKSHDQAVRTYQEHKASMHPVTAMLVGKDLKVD
Kind of series: Epoxide hydrolase inhibition assay with recombinant LTA4H (LTA4 to LTB4). The series is classed as biochemical. Also noted: made in house; host or cells: Escherichia coli JM101. The conditions noted are these: epoxide hydrolase activity, 10-40 μM LTA4, competitive inhibition model. The text has this:
Human recombinant LTA4H was expressed in Escherichia coli JM101 strain and purified as described previously. In short, supernatant of lysed cells was loaded on a nickel affinity column followed by the purification steps with the Mono Q 5/50 and Superdex HiLoad 16/600 columns (Cytiva, Uppsala, Sweden). Protein purity was checked by sodium dodecyl-sulfate polyacrylamide gel electrophoresis (SDS-PAGE)(XCell SureLock Mini-Cell Electrophoresis System and PowerEase 300W Power Supply) with a NuPAGE Bis-Tris 4–12% gels (Invitrogen, Waltham, MA, USA) after every purification step.
Purified LTA4H (3 μg) was pre-incubated with 0–50 μM inhibitors on ice for 3 min and the epoxide hydrolase reaction was carried out with 10 μM, 20 μM or 40 μM LTA4 for 15 s in 100 μL 25 mM Tris-HCl pH 7.8 at room temperature. The incubation was stopped by addition of 2 vol of methanol, containing 300 pmol PGB2 (ε ~ 26,000 M^−1 cm^−1; λmax = 280 nm) as an internal standard, and followed by 1 vol of distilled water. […] The formation of LTB4 (ε ~ 50,000 M^−1 cm^−1) was determined at 270 nm. The Ki value for each inhibitor was calculated using the competitive inhibition model in the GraphPad Prism 9 program.

As a reminder, the Ki is the dissociation constant of the complex between target and ligand, obtained from inhibition or displacement.

Consider `Nc1nc(-c2ccc(Cc3ccccc3)cc2)co1` [TTO, 4-(4-benzylphenyl) oxazol-2-amine], for which the “safety in human leukocytes (cytotoxicity assays)” value (from here on “safety in human leukocytes”) in series [1] was “safe”. In addition, the Ki on LTA4H was 3.8 µM.

On to `Nc1nc(-c2ccc(Cc3ccccc3)cc2)cs1` [ARM1, 4-(4-benzylphenyl) thiazol-2-amine, reference compound], for which, in series [1], the “safety in human leukocytes” value was “safe”. Moreover, on LTA4H, the inhibitory constant (Ki) worked out at 1.5 µM.

`Nc1nc(-c2ccc(Cc3ccccc3)cc2)c[se]1` [TTSe, 4-(4-benzylphenyl) selenazol-2-amine]: the “safety in human leukocytes” value in series [1] is listed as “safe”. The Ki on LTA4H is 4.8 µM.
